# Source: US11040027B2, “Protein kinase inhibitors for promoting liver regeneration or reducing or preventing hepatocyte death” (HEPAREGENIX GMBH, priority 2017, dated 2021)
# pIC50: −log10 of the molar value.
# How the values were obtained:
# MEKK2 = target: T1, MEKK2 (Homo sapiens, UniProt Q9Y2U5); assay: Radiometric protein kinase assay, MEKK2; type: biochemical; details: substrate Casein, ATP 0.2 μM; read-out: MEKK2 (potency derived from IC50-values)
# T1 construct: purchased ProQinase 0583-0000-1
# T1 sequence (Q9Y2U5 1-619): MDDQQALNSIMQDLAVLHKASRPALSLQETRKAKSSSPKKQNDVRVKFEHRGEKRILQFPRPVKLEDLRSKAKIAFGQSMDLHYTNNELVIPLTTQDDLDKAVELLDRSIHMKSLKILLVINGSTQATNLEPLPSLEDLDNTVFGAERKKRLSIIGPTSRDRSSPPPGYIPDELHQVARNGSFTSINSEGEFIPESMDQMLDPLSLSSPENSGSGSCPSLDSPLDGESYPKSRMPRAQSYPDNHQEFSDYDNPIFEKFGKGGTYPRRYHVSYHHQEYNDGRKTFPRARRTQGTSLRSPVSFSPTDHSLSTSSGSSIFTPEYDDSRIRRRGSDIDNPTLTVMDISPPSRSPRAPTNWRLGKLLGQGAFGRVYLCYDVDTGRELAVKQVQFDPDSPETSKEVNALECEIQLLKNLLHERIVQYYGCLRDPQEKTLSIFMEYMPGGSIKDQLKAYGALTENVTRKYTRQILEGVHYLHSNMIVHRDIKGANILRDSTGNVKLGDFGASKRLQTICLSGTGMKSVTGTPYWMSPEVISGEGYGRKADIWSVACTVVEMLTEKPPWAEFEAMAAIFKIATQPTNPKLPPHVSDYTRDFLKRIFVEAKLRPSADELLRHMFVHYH
# Description: (§1) A radiometric protein kinase assay was used for measuring the kinase activity of the respective protein kinases. All kinase assays were performed in 96-well polypropylene plates. After the reactions were stopped, the assay mixtures were transferred to 96-well MSFC filter-plates (Millipore). The reaction mix was passed through the filter membrane by aspiration, the membrane was washed 3 times with 150 mM H3PO4, once with ethanol, dried and liquid scintillation cocktail was added. Radioactivity was determined by counting of the samples in a Microbeta multiwell scintillation counter (Wallac).
# (§2) b) Single Kinases • 20 μl standard assay buffer • 5 μl compound in 10% DMSO • 20 μl enzyme-substrate mix • 10 μl of substrate solution
# (§3) The reaction cocktails were incubated at 30° C. for 30 minutes.
# MKK4 active = target: T2, MKK4 active (Homo sapiens, UniProt P45985); assay: Radiometric protein kinase assay, MKK4 active; type: biochemical; details: substrate JNK1 KRKR, ATP 0.2 μM, read-out: MKK4 (potency derived from IC50-values)
# T2 construct: purchased ProQinase 0948-0000-1
# T2 sequence (P45985 1-399): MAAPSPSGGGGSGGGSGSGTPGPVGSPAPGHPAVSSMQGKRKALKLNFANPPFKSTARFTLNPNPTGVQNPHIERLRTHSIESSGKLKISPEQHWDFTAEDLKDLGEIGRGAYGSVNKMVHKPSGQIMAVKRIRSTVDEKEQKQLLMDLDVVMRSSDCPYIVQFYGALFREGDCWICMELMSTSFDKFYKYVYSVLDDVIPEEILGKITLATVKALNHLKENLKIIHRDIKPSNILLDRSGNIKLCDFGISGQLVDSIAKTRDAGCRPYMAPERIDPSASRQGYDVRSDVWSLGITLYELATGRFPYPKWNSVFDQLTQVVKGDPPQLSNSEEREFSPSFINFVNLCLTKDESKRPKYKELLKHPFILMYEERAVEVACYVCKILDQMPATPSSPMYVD
# Description: as §1, §2, §3
# JNK1 = JNK1 (Homo sapiens, UniProt P45983); assay: KINOMEscan competition binding assay, selectivity JNK1 versus MKK4; details: ratio of percent of control
# Chain of JNK1 (P45983 1-384 isoform P45983-2): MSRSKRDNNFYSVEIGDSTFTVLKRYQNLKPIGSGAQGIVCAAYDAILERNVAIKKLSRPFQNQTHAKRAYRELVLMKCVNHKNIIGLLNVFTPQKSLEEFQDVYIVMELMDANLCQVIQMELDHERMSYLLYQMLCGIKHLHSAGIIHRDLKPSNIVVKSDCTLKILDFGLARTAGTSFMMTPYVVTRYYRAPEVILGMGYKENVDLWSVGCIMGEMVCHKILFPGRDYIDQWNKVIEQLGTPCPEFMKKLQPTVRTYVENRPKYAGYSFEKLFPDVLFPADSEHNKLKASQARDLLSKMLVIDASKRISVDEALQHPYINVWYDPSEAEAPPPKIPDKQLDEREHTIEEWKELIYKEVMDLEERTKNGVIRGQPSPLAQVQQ
# BRaf = BRaf (Homo sapiens, UniProt P15056); assay: KINOMEscan competition binding assay, selectivity BRaf versus MKK4; details: Test conc. 0.1 μM; ratio of percent of control; N/E* per footnote
# Chain of BRaf (P15056 whole entry): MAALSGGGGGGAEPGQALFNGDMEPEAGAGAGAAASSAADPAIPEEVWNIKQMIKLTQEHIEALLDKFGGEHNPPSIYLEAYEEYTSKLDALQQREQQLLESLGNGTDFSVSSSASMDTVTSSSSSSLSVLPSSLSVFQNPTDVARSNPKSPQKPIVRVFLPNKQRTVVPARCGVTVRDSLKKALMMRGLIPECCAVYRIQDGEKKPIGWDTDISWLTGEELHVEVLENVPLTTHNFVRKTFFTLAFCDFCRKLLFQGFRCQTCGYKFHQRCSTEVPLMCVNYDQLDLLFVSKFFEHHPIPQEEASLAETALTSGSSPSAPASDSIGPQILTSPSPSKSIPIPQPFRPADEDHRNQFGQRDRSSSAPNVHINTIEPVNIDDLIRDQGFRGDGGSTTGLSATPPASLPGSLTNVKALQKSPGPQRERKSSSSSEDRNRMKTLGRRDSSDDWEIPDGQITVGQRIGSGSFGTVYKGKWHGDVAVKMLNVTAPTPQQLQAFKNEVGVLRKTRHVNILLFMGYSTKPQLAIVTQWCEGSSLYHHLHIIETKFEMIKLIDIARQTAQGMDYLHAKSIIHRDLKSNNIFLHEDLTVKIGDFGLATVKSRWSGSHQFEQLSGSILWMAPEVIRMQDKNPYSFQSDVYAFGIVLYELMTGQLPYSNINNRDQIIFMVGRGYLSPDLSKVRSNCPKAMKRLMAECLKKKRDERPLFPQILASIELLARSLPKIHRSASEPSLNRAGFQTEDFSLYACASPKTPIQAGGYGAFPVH
# Description: The assay was performed by combining three components: DNA-tagged kinase; immobilized ligand; and a test compound. The ability of the test compound to compete with the immobilized ligand was measured via quantitative PCR of the DNA tag. The technology is described in detail in Fabian, M. A. et al. A small molecule-kinase interaction map for clinical kinase inhibitors. Nat. […] Nat.
# The test compounds were provided as 10 mM stock solutions. The test solutions at indicated final concentrations were prepared at DiscoverX.
# MKK7 = target: T3, MKK7 (Homo sapiens, UniProt O14733); assay: KINOMEscan competition binding assay, selectivity MKK7 versus MKK4; details: Test conc. 0.1 μM; ratio of percent of control; N/E* per footnote
# T3 sequence (O14733 1-419): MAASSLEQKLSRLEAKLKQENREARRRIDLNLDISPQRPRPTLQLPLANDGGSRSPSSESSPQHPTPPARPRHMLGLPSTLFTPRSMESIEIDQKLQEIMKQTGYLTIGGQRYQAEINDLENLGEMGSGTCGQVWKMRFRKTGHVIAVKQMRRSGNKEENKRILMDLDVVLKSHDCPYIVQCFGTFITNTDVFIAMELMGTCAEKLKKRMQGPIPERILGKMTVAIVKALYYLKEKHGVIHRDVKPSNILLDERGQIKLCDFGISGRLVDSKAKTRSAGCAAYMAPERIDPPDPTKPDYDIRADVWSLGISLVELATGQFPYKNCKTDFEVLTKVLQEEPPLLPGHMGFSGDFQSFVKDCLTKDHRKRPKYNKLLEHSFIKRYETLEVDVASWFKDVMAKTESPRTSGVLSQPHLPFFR
# Description: (§4) For investigation of the affinity to MKK4, MKK7 and JNK1, the kinases were produced in HEK-293 cells and subsequently tagged with DNA for qPCR detection. […] The liganded beads were blocked with excess biotin and washed with blocking buffer (SEABLOCK™ (Pierce), 1% BSA, 0.05% TWEEN®20, 1 mM DTT) to remove unbound ligand and to reduce nonspecific binding. […] All reactions were performed in polystyrene 96-well plates in a final volume of 0.135 mL. […] The kinase concentration in the eluates was measured by qPCR.
# MKK4 = target: T4, MKK4 (Homo sapiens, UniProt P45985); assay: KINOMEscan competition binding assay, MKK4; details: read-out: Potency MKK4 (derived from % of control values, PoC)
# T4 sequence (P45985 84-399): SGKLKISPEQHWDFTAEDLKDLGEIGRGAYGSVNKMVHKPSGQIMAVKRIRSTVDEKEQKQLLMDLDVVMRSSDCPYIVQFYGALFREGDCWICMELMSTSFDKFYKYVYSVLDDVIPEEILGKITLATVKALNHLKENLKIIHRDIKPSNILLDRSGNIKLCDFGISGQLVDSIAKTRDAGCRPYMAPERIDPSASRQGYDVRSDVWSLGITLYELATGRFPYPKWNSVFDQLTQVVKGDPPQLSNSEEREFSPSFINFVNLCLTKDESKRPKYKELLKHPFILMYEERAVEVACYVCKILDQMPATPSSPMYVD
# Description: as §4
# [1] = Test conc 0.1 μM, N/E* = PoC for JNK1 = 100
SMILES,pIC50 (MEKK2),pIC50 (MKK4 active),Selectivity JNK1/MKK4 (JNK1; [1]),Selectivity BRaf/MKK4 (BRaf),Selectivity MKK7/MKK4 (MKK7),remaining binding at 0.1 µM (MKK4),Selectivity JNK1/MKK4 (JNK1; Test conc 10 μM)
"COCCS(=O)(=O)Nc1ccc(F)c(C(=O)c2c[nH]c3ncc(-c4ccc(Cl)cc4)cc23)c1F [Example 32, N-(3-(5-(4-Chlorophenyl)-1H-pyrrolo[2,3-b]pyridine-3-carbonyl)-2,4-difluorophenyl)-2-methoxyethane-1-sulfonamide]",< 5.00,,,,,,
"CCCS(=O)(=O)Nc1ccc(F)c(C(=O)c2c[nH]c3ncc(-c4ccc(F)cc4)cc23)c1F [Example 11, N-(2,4-Difluoro-3-(5-(4-fluorophenyl)-1H-pyrrolo[2,3-b]pyridine-3-carbonyl)phenyl)propane-1-sulfonamide]",,,,6.3,25,10 to 30%,>100
"CCCS(=O)(=O)Nc1cc(C)cc(C(=O)c2c[nH]c3ncc(-c4ccc(Cl)cc4)cc23)c1 [Example 24, N-(3-(5-(4-Chlorophenyl)-1H-pyrrolo[2,3-b]pyridine-3-carbonyl)-5-methylphenyl)propane-1-sulfonamide]",,,N/E* (PoC for JNK1 = 100),0.9,1.0,> 30%,
"CCCS(=O)(=O)Nc1ccc(F)c(C(=O)c2c[nH]c3ncc(-c4ccc(OC)cc4Cl)cc23)c1F [Example 39, N-(3-(5-(2-Chloro-4-methoxyphenyl)-1H-pyrrolo[2,3-b]pyridine-3-carbonyl)-2,4-difluorophenyl)propane-1-sulfonamide]",5.00 to 6.00,,,,,,
"CCCS(=O)(=O)Nc1ccc(F)c(C(=O)c2c[nH]c3ncc(-c4cnc5ccccc5c4)cc23)c1F [Example 6, N-(2,4-Difluoro-3-(5-(quinolin-3-yl)-1H-pyrrolo[2,3-b]pyridin-3-carbonyl)phenyl)propane-1-sulfonamide]",,,,0.1,5.6,> 30%,>100
"CCCS(=O)(=O)Nc1ccc(F)c(C(=O)c2c[nH]c3ncc(-c4cccc(C#N)c4)cc23)c1F [Example 14, N-(3-(5-(3-Cyanophenyl)-1H-pyrrolo[2,3-b]pyridine-3-carbonyl)-2,4-difluorophenyl)propane-1-sulfonamide]",,,,1.5,10,10 to 30%,23

# Second part, the compound after the results:
pIC50 (MEKK2),pIC50 (MKK4 active),Selectivity JNK1/MKK4 (JNK1; [1]),Selectivity BRaf/MKK4 (BRaf),Selectivity MKK7/MKK4 (MKK7),remaining binding at 0.1 µM (MKK4),Selectivity JNK1/MKK4 (JNK1; Test conc 10 μM),SMILES
5.00 to 6.00,> 6.30,N/E* (PoC for JNK1 = 100),14,18,< 10%,,"CCCS(=O)(=O)Nc1ccc(F)c(C(=O)c2c[nH]c3ncc(-c4cc5c(cc4Cl)OCCO5)cc23)c1F [Example 44, N-(3-(5-(7-Chloro-2,3-dihydrobenzo[b][1,4]dioxin-6-yl)-1H-pyrrolo[2,3-b]pyridine-3-carbonyl)-2,4-difluorophenyl)propane-1-sulfonamide]"
5.00 to 6.00,> 6.30,N/E* (PoC for JNK1 = 100),7.7,9.1,,,"CCCS(=O)(=O)Nc1ccc(F)c(C(=O)c2c[nH]c3ncc(-c4cc5c(cc4Cl)OCO5)cc23)c1F [Example 43, N-(3-(5-(6-Chlorobenzo[d][1,3]dioxol-5-yl)-1H-pyrrolo[2,3-b]pyridine-3-carbonyl)-2,4-difluorophenyl)propane-1-sulfonamide]"
< 5.00,,,,,,,"CCCS(=O)(=O)Nc1ccc(F)c(C2(c3c[nH]c4ncc(-c5ccc(Cl)cc5)cc34)OCCO2)c1F [Example 104, N-(3-(2-(5-(4-chlorophenyl)-1H-pyrrolo[2,3-b]pyridin-3-yl)-1,3-dioxolan-2-yl)-2,4-difluorophenyl)propane-1-sulfonamide]"
< 5.00,5.00 to 6.00,,,,,,"CCCS(=O)(=O)Nc1ccc(F)c(C(=O)c2c[nH]c3ncc(-c4ccc(Cl)cc4)cc23)c1Cl [Example 86, N-(2-chloro-3-(5-(4-chlorophenyl)-1H-pyrrolo[2,3-b]pyridine-3-carbonyl)-4-fluorophenyl)propane-1-sulfonamide]"
< 5.00,5.00 to 6.00,,,,,,"CCCS(=N)(=O)Nc1ccc(F)c(C(=O)c2c[nH]c3ncc(-c4ccc(Cl)cc4)cc23)c1F (centres unmarked) [Example 112, N-(3-(5-(4-chlorophenyl)-1H-pyrrolo[2,3-b]pyridine-3-carbonyl)-2,4-difluorophenyl)propane-1-sulfonimidamide]"
,,28,7.2,N/E* (PoC for JNK1 = 100),< 10%,,"CCCS(=O)(=O)Nc1ccc(F)c(C(=O)c2c[nH]c3ncc(-c4ccccc4)cc23)c1F [Example 101, N-(2,4-difluoro-3-(5-phenyl-1H-pyrrolo[2,3-b]pyridine-3-carbonyl)phenyl)propane-1-sulfonamide]"
,,8.6,6.5,N/E* (PoC for JNK1 = 100),10 to 30%,,"CCCOc1ccc(-c2cnc3[nH]cc(C(=O)c4c(F)ccc(NS(=O)(=O)CCC)c4F)c3c2)c(Cl)c1 [Example 97, N-(3-(5-(2-chloro-4-propoxy-phenyl)-1H-pyrrolo[2,3-b]pyridine-3-carbonyl)-2,4-difluorophenyl)-propane-1-sulfonamide]"
> 6.30,,,,,,,"O=C(c1c(F)ccc(NS(=O)(=O)CCc2ccccc2)c1F)c1c[nH]c2ncc(-c3ccc(Cl)cc3)cc12 [Example 103, N-(3-(5-(4-chlorophenyl)-1H-pyrrolo[2,3-b]pyridine-3-carbonyl)-2,4-difluorophenyl)-2-phenylethane-1-sulfonamide]"
5.00 to 6.00,,,,,,,"CCCS(=O)(=O)Nc1ccc(F)c(C(=O)c2c[nH]c3ncc(-c4cccc(N)c4)cc23)c1F [Example 19, N-(3-(5-(3-Aminophenyl)-1H-pyrrolo[2,3-b]pyridine-3-carbonyl)-2,4-difluorophenyl)propane-1-sulfonamide]"
